Measurements taken from paper PMC5617480 (Oncotarget, 2017).

Legend:
Assay in all cases: Cytotoxicity assay (MTT assay)
Type in all cases: cell-based, human
HL-7702 normal cells = settings: for Inhibitory rates (%): HL-7702, 20 μM
Description: (§1) To evaluate the cytotoxicity of chiral platinum(II) complexes, HeLa, BEL-7402, MGC80-3, BEL-7404, A549, Hep-G2 and HL-7702 cells (normal cells) were treated with varying concentrations of complexes 1–6 and cisplatin (positive control, cisplatin was dissolved at a concentration of 1.0 mM in 0.154 M NaCl) for 24 h and 48 h. The cell viability of each experimental group was examined by MTT assays. […] [61, 62].
(§2) Materials 100 U/mL penicillin and 100 μg/mL streptomycin in 25 cm2 culture flasks at 37 °C humidified atmosphere with Tris, RNase A, and propidium iodide (PI) were 5% CO2. All cells to be tested in the following assays have purchased from Sigma. The antibody of mutp53, a passage number of 3-6. […]
(§3) were purchased from Abcam. Unless otherwise stated, BEL-7404, A549, and Hep-G2 cancer-cell lines and HL-spectroscopic titration experiments were carried out in 7702 normal cells) per well were seeded in triplicate in TBS (10 mM pH7.35 Tris-HCl, containing 100 mM KCl). 96-well plates and incubated for 24 h at 37 °C and 5.0% The total RNA isolation kit and the two-step RT-PCR kit CO2/95.0% air. Then graded amounts of compound were purchased from TIANGEN. DNA oligomers (highly added to the wells in 10.0 μL of FBS free culture medium polymerized stored at 4 °C; long-term storage at −20 °C) and the plates were incubated in a 5% CO2 humidified are listed in Supplementary Table 1 and were obtained from atmosphere for 24 h and 48 h. Six replica wells were used Shanghai Sangon Biological Engineering Technology & as controls. Each the cells were grew for 12.0 h before Services (Shanghai, China). All tumor cell lines (HeLa, treatment to reach 70.0% confluency and 20.0 μL of tested BEL-7402, MGC80-3, BEL-7404, A549, Hep-G2 cancer- various concentrations of compounds were added to each cell lines and normal liver cell line HL-7702) were obtained well. The final concentration of the tested complexes from the Shanghai Institute for Biological Science (China). or compounds were kept at 1.25, 2.5, 5, 10, 20 μM, Stock solutions of all the compounds (2.0 mM) were made respectively. After 24 h or 48 h of culture, 0.1 mg of in DMSO, and further dilutions to working concentrations MTT (in 20 μL of PBS) was added to each well, and cells were made with corresponding buffer. were incubated at 37 °C for 6 h. The formed formazan crystals were then dissolved in 100 μL of DMSO and the Instrumentation absorbance was read by enzyme labeling instrument with Infrared spectra were obtained on a Perkine Elmer 490/630 nm double wavelength measurement. The final FT-IR Spectrometer. Elemental analyses (C, H, N) IC50 values were calculated by the Bliss method (n = 5). were carried out on a Perkin Elmer Series II CHNS/O All tests were repeated in at least three independent trials. […]

BEL-7402 cells = settings: for Inhibitory rates (%): BEL-7402, 20 μM
Description: as §1, with “62]. […] Therefore, complex 6 (10 μM) was selected for cell apoptosis analysis by flow-cytometry, RT-PCR, caspase-3/9 activation assays, western blot and transfection assays in BEL-7404 cells for 24 h. In addition, this observed difference in in vitro cytotoxicity between the three complexes 4–6 could be due to the influence of the chirality of the FOA ligand [68]. […]” for “62].”
as §2, §3
(§4) 10.0 min. The cell pellet obtained was dissolved in 1.0 M
(§5) The region between 200 and 400 nm was scanned for each NaOH (1.0 mL) and diluted with 2.0% (v/v) HNO3 (5.0 sample. MTT assay was performed on M1000 microplate mL) for determining whole cell Pt content. Another set reader (Tecan Trading Co. Ltd, Shanghai, China). Cell was treated similarly, nuclear proteins, nuclear fraction, cycle and apoptosis analysis was recorded on FACS Aria cytoplasmic protein, membrane proteins and other fraction II Flow Cytometer (BD Biocsiences, San Jose, USA). were isolated as described by Chen and Schreiber et al. And the each final solution was made up to 5.0 mL
(§6) Cytotoxicity assay (MTT assay) using 2.0% (v/v) HNO3. The amount of Pt taken up by the cells was determined by ICP-MS. The instrument was […]

HeLa cells = settings: for Inhibitory rates (%): 20 μM
Description: as §1, with “62]. […] Therefore, complex 6 (10 μM) was selected for cell apoptosis analysis by flow-cytometry, RT-PCR, caspase-3/9 activation assays, western blot and transfection assays in BEL-7404 cells for 24 h. In addition, this observed difference in in vitro cytotoxicity between the three complexes 4–6 could be due to the influence of the chirality of the FOA ligand [68]. […]” for “62].”
as §2, §3, §4, §5, §6

MGC80-3 cells = settings: for Inhibitory rates (%): MGC80-3, 20 μM
Description: as §1, with “62]. […] Therefore, complex 6 (10 μM) was selected for cell apoptosis analysis by flow-cytometry, RT-PCR, caspase-3/9 activation assays, western blot and transfection assays in BEL-7404 cells for 24 h. In addition, this observed difference in in vitro cytotoxicity between the three complexes 4–6 could be due to the influence of the chirality of the FOA ligand [68]. […]” for “62].”
as §2, §3, §4, §5, §6

A549 cells = settings: for Inhibitory rates (%): A549, 20 μM
Description: as §1, with “62]. […] Therefore, complex 6 (10 μM) was selected for cell apoptosis analysis by flow-cytometry, RT-PCR, caspase-3/9 activation assays, western blot and transfection assays in BEL-7404 cells for 24 h. In addition, this observed difference in in vitro cytotoxicity between the three complexes 4–6 could be due to the influence of the chirality of the FOA ligand [68]. […]” for “62].”
as §2, §3, §4, §5, §6

Hep-G2 cells = settings: for Inhibitory rates (%): Hep-G2, 20 μM
Description: as §1, with “62]. […] Therefore, complex 6 (10 μM) was selected for cell apoptosis analysis by flow-cytometry, RT-PCR, caspase-3/9 activation assays, western blot and transfection assays in BEL-7404 cells for 24 h. In addition, this observed difference in in vitro cytotoxicity between the three complexes 4–6 could be due to the influence of the chirality of the FOA ligand [68]. […]” for “62].”
as §2, §3, §4, §5, §6

BEL-7404 cells = settings: for Inhibitory rates (%): BEL-7404, 20 μM
Description: as §1, with “62]. […] Therefore, complex 6 (10 μM) was selected for cell apoptosis analysis by flow-cytometry, RT-PCR, caspase-3/9 activation assays, western blot and transfection assays in BEL-7404 cells for 24 h. In addition, this observed difference in in vitro cytotoxicity between the three complexes 4–6 could be due to the influence of the chirality of the FOA ligand [68]. […]” for “62].”
as §2, §3, §4, §5, §6

SMILES | selectivity index factor, IC50 (normal HL-7702 cells)/IC50 (BEL-7404 tumor cells) (HL-7702 normal cells; 24 h) | Inhibitory rates (%) (HL-7702 normal cells; 24 h) | Inhibitory rates (%) (HL-7702 normal cells; 48 h) | IC50 (HL-7702 normal cells; HL-7702, 24 h) [µM] | Inhibitory rates (%) (BEL-7402 cells; 24 h) | Inhibitory rates (%) (BEL-7402 cells; 48 h) | IC50 (BEL-7402 cells; BEL-7402, 24 h) [µM] | Inhibitory rates (%) (HeLa cells; 24 h) | Inhibitory rates (%) (HeLa cells; 48 h) | IC50 (HeLa cells; 24 h) [µM] | Inhibitory rates (%) (MGC80-3 cells; 24 h) | Inhibitory rates (%) (MGC80-3 cells; 48 h) | IC50 (MGC80-3 cells; MGC80-3, 24 h) [µM] | Inhibitory rates (%) (A549 cells; 24 h) | Inhibitory rates (%) (A549 cells; 48 h) | IC50 (A549 cells; A549, 24 h) [µM] | Inhibitory rates (%) (Hep-G2 cells; 24 h) | Inhibitory rates (%) (Hep-G2 cells; 48 h) | IC50 (Hep-G2 cells; Hep-G2, 24 h) [µM] | Inhibitory rates (%) (BEL-7404 cells; 24 h) | other results
O=C(NCC(O)CO)c1cnc2c3c(cccc13)-c1ccccc1C2=O.[Cl-].[Cl-].[Pt+2] (racemic) [ligand 1, R/S-(±)-FOA] | 3.4 | 11.0 ± 1.6 | 15.2 ± 0.6 | 141 ± 1.7 | 30.5 ± 1.4 | 38.9 ± 1.6 | 54.9 ± 1.2 | 25.6± 1.2 | 33.6 ± 1.3 | 69.3 ± 1.3 | 18.6 ± 0.3 | 24.9 ± 2.2 | 87.2 ± 0.5 | 32.6 ± 0.4 | 48.4 ± 1.6 | 45.8 ± 0.3 | 21.3 ± 1.9 | 27.8 ± 0.8 | 73.5 ± 2 | 35.9 ± 0.7 | Inhibitory rates (%) (BEL-7404 cells; 48 h): 51.9 ± 2.7%; IC50 (BEL-7404 cells; BEL-7404, 24 h): 41.2 ± 0.6 µM
N.N.[Cl][Pt][Cl] [cisplatin, reference compound] | 0.8 | 59.6 ± 1.2 | 73.6 ± 2.3 | 19.8 ± 1.3 | 55.4 ± 0.9 | 65.7 ± 1.2 | 17.5 ± 0.6 | 64.3 ± 1.4 | 80.6 ± 0.9 | 15.8 ± 1.2 | 61.5 ± 1.2 | 71.4 ± 1.5 | 16.3 ± 1.3 | 48.6 ± 0.4 | 51.1 ± 3.4 | 21.3 ± 0.7 | 51.6 ± 0.6 | 60.6 ± 1.0 | 19.5 ± 0.5 | 45.5 ± 2.1 | selectivity index factor, IC50 (normal HL-7702 cells)/IC50 (BEL-7404 tumor cells) (HL-7702 normal cells; 48 h): 1.0; IC50 (HL-7702 normal cells; HL-7702, 48 h): 15.6 ± 0.3 µM; IC50 (BEL-7402 cells; BEL-7402, 48 h): 13.5 ± 0.9 µM; IC50 (HeLa cells; 48 h): 5.8 ± 0.9 µM; IC50 (MGC80-3 cells; MGC80-3, 48 h): 5.4 ± 0.5 µM; IC50 (A549 cells; A549, 48 h): 17 ± 2.3 µM; IC50 (Hep-G2 cells; Hep-G2, 48 h): 9.5 ± 0.4 µM; Inhibitory rates (%) (BEL-7404 cells; 48 h): 54.2 ± 1.4%; IC50 (BEL-7404 cells; BEL-7404, 24 h): 24.8 ± 1.8 µM; IC50 (BEL-7404 cells; BEL-7404, 48 h): 15.8 ± 0.7 µM
O=C(NC[C@@H](O)CO)c1cnc2c3c(cccc13)-c1ccccc1C2=O.[Cl-].[Cl-].[Pt+2] [ligand 2, R-(+)-FOA] | 1.4 | 25.2 ± 0.3 | 30.6 ± 2.1 | 101.8 ± 0.4 | 17.0 ± 0.6 | 22.3 ± 1.1 | 94.1 ± 0.5 | 18.9 ± 0.6 | 26.8 ± 1.2 | 87.5 ± 0.8 | 9.6 ± 0.6 | 19.6 ± 0.8 | 158.1 ± 0.6 | 28.9 ± 1.4 | 47.9 ± 0.9 | 67.2 ± 1.5 | 17.5 ± 0.4 | 23.6 ± 2.3 | 90.6 ± 0.3 | 25.1 ± 1.2 | Inhibitory rates (%) (BEL-7404 cells; 48 h): 50.0 ± 0.6%; IC50 (BEL-7404 cells; BEL-7404, 24 h): 72.3 ± 1 µM
O=C(NC[C@H](O)CO)c1cnc2c3c(cccc13)-c1ccccc1C2=O.[Cl-].[Cl-].[Pt+2] [ligand 3, S-(–)-FOA] | 3.5 | 23.4 ± 0.9 | 27.5 ± 1.2 | 105.3 ± 1 | 35.1 ± 1.3 | 41.8 ± 2.5 | 45.8 ± 1.4 | 31.2 ± 0.4 | 36.6 ± 1.5 | 43.2 ± 0.4 | 24.2 ± 0.5 | 28.2 ± 1.4 | 78.2 ± 0.7 | 37.2 ± 0.8 | 51.2 ± 3.4 | 36.4 ± 1 | 24.9 ± 0.8 | 29.3 ± 0.9 | 70.1 ± 0.8 | 42.8 ± 0.4 | Inhibitory rates (%) (BEL-7404 cells; 48 h): 64.8 ± 1.3%; IC50 (BEL-7404 cells; BEL-7404, 24 h): 30.1 ± 0.7 µM
